Test results from the NIST ThermoML archive (doi:10.1021/je060271a).
Numbers after ± are expanded uncertainties.

Conditions: 283.14 K, Liquid, Vibrating tube method

CCCCCCC(=O)OCC(COC(=O)CCCCCC)(COC(=O)CCCCCC)COC(=O)CCCCCC [pentaerythritol tetraheptanoate]
Conditions | mass density [kg/m3]
7084.7 kPa | 990 ± 1.2
7096.9 kPa | 989.9 ± 1.2
7109.5 kPa | 990 ± 1.2
7124.4 kPa | 989.9 ± 1.2
7137 kPa | 990 ± 1.2
7149.8 kPa | 990 ± 1.2
7165.1 kPa | 990 ± 1.2
7178.1 kPa | 989.9 ± 1.2
7190.7 kPa | 990 ± 1.2
7203.7 kPa | 990 ± 1.2
7219 kPa | 990 ± 1.2
7232.1 kPa | 990 ± 1.2
7244.9 kPa | 990.1 ± 1.2
7258.2 kPa | 990.1 ± 1.2
7273.8 kPa | 990.1 ± 1.2
7287 kPa | 990 ± 1.2
7300 kPa | 990.1 ± 1.2
7315.9 kPa | 990.1 ± 1.2
7329.2 kPa | 990 ± 1.2
7342.5 kPa | 990.1 ± 1.2
7355.8 kPa | 990 ± 1.2
7372.2 kPa | 990.3 ± 1.2
7385.8 kPa | 990.1 ± 1.2
7399.3 kPa | 990.1 ± 1.2
7413.1 kPa | 990.1 ± 1.2
7429.3 kPa | 990.2 ± 1.2
7442.8 kPa | 990.2 ± 1.2
7456.9 kPa | 990.2 ± 1.2
7471.1 kPa | 990.2 ± 1.2
7487.7 kPa | 990.1 ± 1.2
7501.3 kPa | 990.2 ± 1.2
7515.3 kPa | 990.1 ± 1.2
7532 kPa | 990.3 ± 1.2
7546.5 kPa | 990.1 ± 1.2
7561.7 kPa | 990.1 ± 1.2
7576.2 kPa | 990.3 ± 1.2
7590.2 kPa | 990.3 ± 1.2
7604.7 kPa | 990.2 ± 1.2
7622 kPa | 990.3 ± 1.2
7636.1 kPa | 990.3 ± 1.2
7651 kPa | 990.3 ± 1.2
7668.2 kPa | 990.3 ± 1.2
7682.9 kPa | 990.2 ± 1.2
7697.4 kPa | 990.3 ± 1.2
7715.2 kPa | 990.2 ± 1.2
7729.3 kPa | 990.4 ± 1.2
7744.5 kPa | 990.4 ± 1.2
7760.2 kPa | 990.3 ± 1.2
7775.4 kPa | 990.4 ± 1.2
7793 kPa | 990.3 ± 1.2
7808 kPa | 990.4 ± 1.2
7823 kPa | 990.2 ± 1.2
7841 kPa | 990.4 ± 1.2
7855.8 kPa | 990.3 ± 1.2
7871.2 kPa | 990.4 ± 1.2
7889.8 kPa | 990.4 ± 1.2
7904.8 kPa | 990.4 ± 1.2
7920.5 kPa | 990.5 ± 1.2
7939.2 kPa | 990.4 ± 1.2
7955 kPa | 990.5 ± 1.2
7970.7 kPa | 990.4 ± 1.2
7986.3 kPa | 990.4 ± 1.2
8005.3 kPa | 990.5 ± 1.2
8020.9 kPa | 990.5 ± 1.2
8039.9 kPa | 990.5 ± 1.2
8056 kPa | 990.4 ± 1.2
8071.5 kPa | 990.5 ± 1.2
8091.2 kPa | 990.5 ± 1.2
8107.4 kPa | 990.5 ± 1.2
8123.4 kPa | 990.4 ± 1.2
8140 kPa | 990.5 ± 1.2
8156.7 kPa | 990.5 ± 1.2
8176.8 kPa | 990.5 ± 1.2
8193.5 kPa | 990.4 ± 1.2
8210.2 kPa | 990.6 ± 1.2
8226.8 kPa | 990.5 ± 1.2
8246.8 kPa | 990.6 ± 1.2
8263.9 kPa | 990.5 ± 1.2
8280.8 kPa | 990.7 ± 1.2
8301 kPa | 990.6 ± 1.2
8317.9 kPa | 990.5 ± 1.2
8338.2 kPa | 990.6 ± 1.2
8355.3 kPa | 990.5 ± 1.2
8372.7 kPa | 990.6 ± 1.2
8393.6 kPa | 990.6 ± 1.2
8411 kPa | 990.6 ± 1.2
8428.8 kPa | 990.6 ± 1.2
8446.4 kPa | 990.8 ± 1.2
8467.8 kPa | 990.7 ± 1.2
8485.5 kPa | 990.7 ± 1.2
8503.5 kPa | 990.8 ± 1.2
8524.7 kPa | 990.8 ± 1.2
8542.8 kPa | 990.8 ± 1.2
8560.9 kPa | 990.8 ± 1.2
8578.8 kPa | 990.9 ± 1.2
8601.1 kPa | 990.7 ± 1.2
8619.5 kPa | 990.8 ± 1.2
8638.2 kPa | 990.8 ± 1.2
8660.8 kPa | 990.7 ± 1.2
8679.6 kPa | 990.8 ± 1.2
8698 kPa | 990.8 ± 1.2
8716.6 kPa | 990.8 ± 1.2
8739.2 kPa | 990.7 ± 1.2
8758 kPa | 990.9 ± 1.2
8777.1 kPa | 991 ± 1.2
8800.4 kPa | 990.8 ± 1.2
8820.1 kPa | 990.9 ± 1.2
8839.6 kPa | 990.9 ± 1.2
8863 kPa | 990.9 ± 1.2
8882.8 kPa | 990.9 ± 1.2
8902.7 kPa | 991 ± 1.2
8923.2 kPa | 990.9 ± 1.2
